Data set [1] in a line: Evaluation of other sweeteners and inorganic salts on the taste profile (Example 7). The settings on record: for taste profile results, potassium chloride vs sodium chloride: Test 1, salt as component of the composition. On the set-up: species or system human. From the text: Evaluation of the Effects of Other Sweeteners and Inorganic Salts on the Taste Profile of the Composition
Test 1: Evaluation of Compositions Comprising Sodium Chloride and Potassium Chloride
Test 2: Evaluation of Compositions Comprising Various Sweeteners

The nature of data set [2]: Taste profile (0-5 scale): different salt conditions (Example 11). More on the design: species or system human. The settings on record: control as named at the place. The method, then:
To evaluate the effect of different salt conditions on the resulting taste profiles relative to a control sample (i.e., 059 containing no salt), raw materials were mixed with pure water as indicated in Tables 28-31 to obtain the aqueous solutions as indicated. Taste profiles were determined as described above in Examples 9 and 10.

Data set [3] is described as follows: Taste profiling of sample formulations (Example 4, Test 1 and Test 2). On the set-up: species or system human. Conditions: Test 2; added to RA/RB solution. The method, then:
The samples in lines 2, 4, and 8 of FIG. 1 (0.0625, 0.25, and 0.5625 20% NaOH added) were prepared by mixing raw materials and then formulated in to solutions.
Mixed product: prepared by simply mixing raw materials according to the ratio of Lot #15-0100.

A short description of data set [4]: Taste profile (0-5 scale): adding additional steviol glycosides (Example 12). More on the design: species or system human. Conditions: added SG at 1.9 wt %; control without any added SGs. The method, then:
To evaluate the effect of adding additional SGs on taste profiles relative to a control sample, raw materials were mixed with pure water as indicated in Table 32 to obtain the aqueous solutions as indicated. Taste profiles were determined as described above in Examples 9 and 10.

The conditions of data set [5]: cited from earlier work.
The nature of data set [6]: Double-blind Flash sensory analysis of hydrolyzed D-glucose on RA/RB and RA97. More on the design: species or system human; scale not given here. The settings on record: about 300 ppm in distilled H2O, A = 9.6 ppm, B = 4.8 ppm reacted glucose. On the procedure: Experiment 2: Testing the Sensory Effects of Hydrolyzed D-glucose on RA/RB and RA97
1. To replicate the composition of a dried RA/RB hydrolyte treated with 0.625 mL of reagent, 5 g of RA/RB using a 61:39 ratio of RA97:RB was prepared, making sure to mix the sample thoroughly to ensure homogenization. (3.05 g RA97+1.95 g RB=5 g RA/RB blend). […] HPLC was used to confirm replication.
2. The amount of liquid D-glucose from each vial to be equivalent to 0.96 mg D-glucose from vial A/0.48 mg reacted D-glucose from vial B (representing the reaction product from use of 300 ppm of Stevia reacted with the highest and mid-level amount of 20% NaOH (0.625 mL and 0.3215 mL respectively) would be:
3. The following solution sets were created:
i. 299.04 mg RA/RB blend+668.5µL D-Glucose solution vial A+distilled H2O to a final volume of 1,000 mL (299.04 ppm RA/RB+9.6 ppm reacted glucose).
ii. 299.52 mg RA/RB blend+668.5µL D-Glucose solution vial B+distilled H2O to a final volume of 1,000 mL (299.52 ppm RA/RB+4.8 ppm reacted glucose).
iii. 300 mg RA/RB blend+distilled H2O to a final volume of 1,000 mL (300 ppm RA/RB).
i. 299.04 mg RA97+668.5µL D-Glucose solution vial A+distilled H2O to a final volume of 1,000 mL (299.04 ppm RA97+9.6 ppm reacted glucose).
ii. 299.52 mg RA97+668.5µL D-Glucose solution vial B+distilled H2O to a final volume of 1,000 mL ([…]+4.8 ppm reacted glucose).
iii. 300 mg RA97+distilled H2O to a final volume of 1,000 mL (300 ppm RA97).
Each set was tasted using double-blind Flash sensory analysis (number of analysts=2).

Consider `[Cl-].[K+]` [potassium chloride], for which, in data set [1], the “taste profile results, potassium chloride vs sodium chloride” value is “Substantially same results”.

As for `[Ca+2].[Cl-].[Cl-]` [calcium chloride], the “taste profile relative to the control sample” value in data set [2] is “not significantly affected”.

On to `O=C[C@H](O)[C@@H](O)[C@H](O)[C@H](O)CO` [glucose], for which, in data set [3], the “effect of added component on the taste profile” value is “improved the “sugar like” profile”.

As for rebaudioside C [Reb-C], the “taste profile relative to control sample 10-1” value in data set [4] is “not significantly affected”.

Turning to `O=S(=O)([O-])[O-].[Mg+2]` [magnesium sulfate], in data set [2], the “taste profile relative to the control sample” value is recorded as “not significantly affected”.

For `C=C1C[C@@]23CC[C@H]4[C@@](C)(CCC[C@@]4(C)C(=O)O)[C@@H]2CC[C@]1(O[C@@H]1O[C@H](CO)[C@@H](O)[C@H](O)[C@H]1O[C@@H]1O[C@H](CO)[C@@H](O)[C@H](O)[C@H]1O)C3` [steviolbioside], in data set [4], the “taste profile relative to control sample 10-1” value was “not significantly affected”.

Take `O=C([O-])[O-].[K+].[K+]` [potassium carbonate]: the “taste profile relative to the control sample” value in data set [2] is “not significantly affected”.

For `C=C1C[C@@]23CC[C@H]4[C@@](C)(CCC[C@@]4(C)C(=O)O[C@@H]4O[C@H](CO)[C@@H](O)[C@H](O)[C@H]4O)[C@@H]2CC[C@]1(O[C@@H]1O[C@H](CO)[C@@H](O)[C@H](O)[C@H]1O[C@@H]1O[C@H](CO)[C@@H](O)[C@H](O)[C@H]1O)C3` [stevioside], in data set [4], the “taste profile relative to control sample 10-1” value is “not significantly affected”. For the same compound, the “solubility / dissolution (in words)” value in data set [5] (powder in water at 25° C.) was “very low solubility”.

As to `C=C1C[C@@]23CC[C@H]4[C@@](C)(CCC[C@@]4(C)C(=O)O[C@@H]4O[C@H](CO)[C@@H](O)[C@H](O)[C@H]4O)[C@@H]2CC[C@]1(O[C@@H]1O[C@H](CO)[C@@H](O)[C@H](O[C@@H]2O[C@H](CO)[C@@H](O)[C@H](O)[C@H]2O)[C@H]1O[C@@H]1O[C@H](CO)[C@@H](O)[C@H](O)[C@H]1O)C3` [RA97, Rebaudioside A], the solubility in data set [5] (in water at 25° C.) was 0.8%. In addition, in data set [6], the “T#10 Bitter” value is 2.3, the “T#10 Linger” value came to 5, the “T#10 Ov. Like” value stood at 6 and the “T#10 Sugar Like Body” value turned out to be 3.2. In data set [6], the “T#10 Sweetness” value is reported as 5.8, the “T#11 Bitter” value is reported as 5, the “T#11 Dry” value came to 5.9 and the “T#11 Linger” value came out at 5. Moreover, in data set [6], the “T#11 Ov. Like” value is 6.5, the “T#11 Sugar Like Body” value is 4.4 and the “T#11 Sweetness” value is reported as 6.8.

On to `O=C(CO)[C@@H](O)[C@H](O)[C@H](O)CO` [fructose], for which the “effect of sweetener on taste profile relative to glucose” value in data set [1] (Test 2, sweetener as component of the composition) is on record as “slightly lower than glucose”.

`[Cl-].[Na+]` [sodium chloride]: in data set [3], the “effect of added component on the taste profile” value is given as “improved the “aftertaste” profile”. In data set [1], the “taste profile results, potassium chloride vs sodium chloride” value was “Substantially same results”.

(Values after US11241031B2, “Rebaudioside A and stevioside with improved solubilities” (SWEET GREEN FIELDS USA, LLC, priority 2014, dated 2022).)
